In PubChem BioAssay (NCI) one finds TGI and GI50 data, which are given here for 26 molecules.

What all share (assay): NCI tumour cell line growth inhibition, 48 h
Assay [1] relates to 786-0 renal.
Assay [2] has as its system HCC-2998 colon.
For assay [3], the system named is HCT-15 colon.
For assay [4], the system named is HOP-62 NSCLC.
The subject of assay [5] is HS 578T breast.
The test system of assay [6] is LOX IMVI melanoma.
Assay [7] relates to MALME-3M melanoma.
In assay [8] the test system is MDA-MB-231 breast.
Assay [9] relates to U251 CNS.
The test system of assay [10] is HL-60(TB) leukemia.

Several values for one entry are separate records, joined by “and”; a condition that tells them apart may be missing. Equal entries are not always repeated.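 Exposure lasted 48 hours, with cells grown in 96-well plates and compounds tested at five concentrations. The concentration for 50% growth inhibition is given as GI50. TGI denotes the concentration required for complete inhibition of growth.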

On to `COc1ccccc1N=Nc1c(O)ccc2ccccc12`, for which the TGI in assay [1] is 26.7 µM and 40.3 µM; in [2] it was 71 µM; in assay [3], > 100 µM; in assay [4] it was 30.9 µM and 34.6 µM; in [5] it was > 100 µM; in assay [6], > 100 µM. For the same molecule, the TGI in assay [7] is 16.2 µM and > 100 µM; in assay [8] it was > 100 µM; in assay [9], > 62.4 µM and 40.4 µM. Also, the GI50 in assay [6] is 25.1 µM and 55.7 µM.

Take `COc1cc2c(cc1O)NC(=O)[C@@H]1C[C@@H](O)CN1C2=O`: the TGI in [1], in assay [2], in [3], in [4], in [5] and in [6] was > 100 µM each time. For the same molecule, the TGI in assay [7], in [8] and in [9] was > 100 µM each time.

As to `CCCCCCCCCCCC1=C(O)C(=O)C(CC2=C(O)C(=O)C(CCCCCCCCCCC)=C(O)C2=O)=C(O)C1=O`, the TGI in [1], in [2], in assay [3], in assay [5], in assay [6] and in assay [7] was > 100 µM throughout. For the same molecule, the TGI in assay [8] and in assay [9] was > 100 µM each time.

Regarding `O=C(Nc1cccc2ccccc12)c1cc2ccccc2oc1=O`, the TGI in assay [1] was 50.3 µM; in assay [2], > 100 µM; in assay [3], > 100 µM; in [10], > 100 µM; in assay [4], 49.4 µM; in [5], > 100 µM. Besides, the TGI in [6] was > 100 µM; in assay [7] it was > 100 µM; in assay [8], 58.1 µM; in [9] it was > 100 µM.

As to `CCCCCCCCCCCCCCCCNc1nc(=O)n(C2OC(C)C(O)C2O)cc1F` (stereo unspecified), the TGI is 35.6 µM in assay [1]; 31 µM in assay [2]; 29.1 µM in [3]; 75.1 µM in [10]; 33.8 µM in assay [4]; 56.3 µM in [5]. The TGI in assay [6] stood at 55.5 µM; in assay [7], 40.7 µM; in assay [8] it was 42 µM; in [9], 54.4 µM.

On to `C/C(=N\NC(=S)NC(C)(C)C)c1nc2ncccc2[nH]1`, for which the TGI in assay [1] is > 100 µM; in assay [2], > 68.6 µM; in [3], > 100 µM; in [10] it was > 21.6 µM; in assay [4], > 84.9 µM; in assay [5], > 30.2 µM. Further, the TGI in assay [6] was > 100 µM; in assay [7] it was 60.4 µM; in assay [8] it was > 100 µM; in [9], > 100 µM.

Take `NC(=O)CSc1nc2ccccc2c(=O)n1N`: the TGI in [1], in [2], in assay [3], in assay [5], in assay [6] and in [7] was > 100 µM in each case. Moreover, the TGI in assay [8] and in assay [9] was > 100 µM each time.

In the case of `O=C(Nc1ccc(-n2cc(-c3ccncc3)c(-c3ccc(O)c(Cl)c3)n2)cc1)Nc1cc(C(F)(F)F)cc(C(F)(F)F)c1`, the GI50 is 5.03 µM in [2]; 3.36 µM in assay [3]; 2.98 µM in assay [10]; 5.02 µM in assay [4]; 1.94 µM in assay [5]; 3.73 µM in assay [6]. Besides, the GI50 was 2.59 µM in assay [7], 3.61 µM in [8] and 2.98 µM in assay [9]. For the same molecule, the TGI in assay [2] was 22.1 µM; in [3] it was 12.6 µM; in assay [10] it was 8.09 µM; in [4], 17.3 µM; in [5], 7.41 µM; in [6] it was 23.7 µM. Also, the TGI in [7] came out at 13.9 µM; in assay [8] it was 14.6 µM; in assay [9], 12.4 µM.

For `COc1ccc(S(=O)(=O)NC(CCC(=O)NC(N)=O)C(=O)NC(N)=O)cc1` (stereo unspecified), the TGI in [1], in [2], in assay [3], in assay [10], in assay [4] and in [5] was > 100 µM each time. Moreover, the TGI in [6], in [7], in assay [8] and in assay [9] was > 100 µM throughout.

Consider `COc1cc2c(cc1OC)C1=C(C=O)c3ccc(OC)c(OC)c3C(O)N1CC2` (stereo unspecified), for which the TGI in assay [1] is > 100 µM; in assay [2], 31.7 µM; in assay [3], > 100 µM; in assay [10] it was 75.2 µM; in [4], > 100 µM; in assay [5], > 100 µM. In addition, the results for the TGI in assay [7], in assay [8] and in assay [9] were 53.9 µM, 46.6 µM and 45.9 µM, respectively.

With `O=C1Nc2noc(=O)nc2NO1`, the TGI in assay [1], in [2], in assay [3], in [10], in [4] and in assay [5] was > 200 µM in each case. Further, the TGI in assay [6], in assay [7], in assay [8] and in assay [9] was > 200 µM throughout.

In the case of `C/C(=N/NC(=S)Nc1ccc(C)cc1)c1ccccn1`, the TGI was found to be 12.7 µM in assay [1]; 18.6 µM in assay [2]; 17.6 µM in assay [3]; 0.608 µM in [10]; 5.55 µM in assay [4]; 17 µM in assay [5]. In addition, the TGI worked out at 20.8 µM in assay [6], 8.71 µM in assay [7], 18.7 µM in assay [8] and 14.8 µM in assay [9].

On to `Cc1nc(C(=Nc2ccc(Br)cc2)Nn2cnnc2)no1`, for which the TGI in assay [1], in assay [2], in assay [3], in assay [4], in assay [5] and in [7] was > 100 µM each time. Further, the TGI in assay [8] and in assay [9] was > 100 µM throughout.

Take `COC1=C(OC)C(=O)C(Cc2c(Cl)nc3sccn23)=C(C)C1=O`: the TGI in [1] was determined as 33.2 µM; in assay [2] it was 32.1 µM; in [3], 27.2 µM; in assay [10], 6.98 µM; in assay [4] it was 31.1 µM; in [5], 50.3 µM. Also, the TGI in assay [6] came out at 10.4 µM; in assay [7], 13.7 µM; in [8], 8.28 µM; in [9], 25.1 µM.

In the case of `CC(=O)Oc1cc2c(cc1OCC(F)(F)F)[C@H]1CC[C@]3(C)[C@@H](OC(C)=O)CC[C@H]3[C@@H]1CC2=O`, the TGI in [1] is > 100 µM; in assay [2] it was 67.3 µM; in assay [3], > 88 µM; in assay [10], 34.7 µM; in assay [4] it was > 70 µM; in [5] it was 50.4 µM. The TGI is > 78 µM in assay [6], 47.9 µM in assay [7], 60.2 µM in assay [8] and > 74.1 µM in assay [9].

As to `Cc1ccc(C(=O)Nc2ccc(CP(=O)(O)O)cc2CP(=O)(O)O)cc1N`, the TGI in assay [1], in assay [2], in assay [3], in assay [10], in [4] and in [5] was > 100 µM throughout. Moreover, the TGI in [6], in [7], in assay [8] and in assay [9] was > 100 µM in each case.

For `Clc1[nH]nc2ccccc12`, the TGI in assay [1], in assay [2], in assay [3], in assay [10], in assay [4] and in [5] was > 100 µM each time. The TGI in assay [7], in [8] and in assay [9] was > 100 µM in each case.

For the molecule `CC(=O)OC12c3ccccc3C(c3ccccc31)C1C(=O)N(N=C(C)C)C(=O)C12` (stereo unspecified), the TGI in [1], in assay [2], in [3], in assay [10], in assay [4] and in [5] was > 100 µM throughout. The TGI in assay [6], in assay [7], in assay [8] and in assay [9] was > 100 µM each time.

Take `COc1cccc2c(=O)oc(-c3ccccc3C)nc12`: the TGI in assay [1] was > 100 µM; in assay [2], > 100 µM; in assay [3] it was > 100 µM; in [10] it was > 100 µM; in assay [4], 76.3 µM; in assay [5], > 100 µM. Further, the TGI is 36.6 µM in assay [6], > 100 µM in assay [7], > 100 µM in [8] and > 100 µM in assay [9].

As to `CC(C)CNP(=O)(NCC(C)C)Oc1ccc(CC(NC(=O)OCc2ccccc2)C(=O)OCc2ccccc2)cc1` (stereo unspecified), the TGI turned out to be 28.9 µM in [1]; 30.7 µM in assay [2]; 89.6 µM in assay [3]; 30.8 µM in assay [4]; 85.8 µM in [5]; 32.5 µM in [6]. Besides, the TGI was 34.9 µM in [7], 34.9 µM in [8] and 30.1 µM in assay [9].

Regarding `CC(=O)CCC1(C(=O)OCC(C)C)CCCC1=O` (stereo unspecified), the TGI in assay [1], in [3], in assay [10], in assay [4], in [5] and in assay [6] was > 100 µM throughout. Besides, the TGI in assay [7], in [8] and in [9] was > 100 µM in each case.

Consider `O=c1c2ccc(Cl)cc2oc2c(CSc3ccccc3)cccc12`, for which the TGI in assay [1] was > 100 µM; in assay [2] it was > 100 µM; in assay [3], > 100 µM; in [4] it was > 100 µM; in assay [5], > 100 µM; in [6], > 91.9 µM. The TGI in assay [7] was > 61.1 µM; in assay [8], > 100 µM; in assay [9] it was > 100 µM.

For the molecule `O=C(OCCN=c1c2ccccc2ccc2ccccc12)c1cc([N+](=O)[O-])cc([N+](=O)[O-])c1`, the TGI in assay [1], in assay [3], in assay [10], in [4], in [5] and in assay [6] was > 100 µM each time. Moreover, the TGI was 66.2 µM in assay [7], > 100 µM in assay [8] and > 100 µM in assay [9].

On to `COC(=O)CCC(C)[C@H]1CCC2C3CC[C@@H]4CC5(CC[C@]4(C)C3C[C@H](OC(C)=O)[C@@]21C)OOC1(CCCCC1)OO5` (stereo partly specified), for which the TGI in assay [1] is > 100 µM; in assay [2] it was 9.2 µM; in [3], > 100 µM; in [10] it was 8.89 µM; in [4], > 100 µM; in [5], > 100 µM. Moreover, the TGI was 60.3 µM in [7], > 100 µM in assay [8] and > 100 µM in assay [9].

In the case of `Nc1c(C(=O)O)c2ccc([N+](=O)[O-])cc2c(=O)n1-c1nc2ccccc2s1`, the TGI in assay [1], in assay [2], in [3], in assay [4], in [5] and in assay [6] was > 100 µM in each case. The TGI in [7], in assay [8] and in assay [9] was > 100 µM throughout.

Turning to `N#Cc1cc(F)cc(Oc2ccc(S(=O)(=O)C(F)F)c3c2CC(F)(F)[C@H]3O)c1`, the GI50 is 48 µM in assay [2]; 29.2 µM in assay [3]; 27.4 µM in assay [10]; 51.1 µM in assay [4]; 28.5 µM in [5]; 35 µM in assay [6]. Moreover, the GI50 in [7] was 28.5 µM; in assay [8] it was 22.3 µM; in assay [9], 29.8 µM. Moreover, the TGI in assay [2] is > 100 µM; in assay [3], > 100 µM; in assay [10] it was 87.2 µM; in assay [4], > 100 µM; in assay [5], > 100 µM; in assay [6], > 100 µM. Further, the TGI in assay [7] was > 100 µM; in assay [8] it was 73.2 µM; in assay [9] it was > 100 µM.
